- melting point: 123 °C
Structure (SMILES): Cc1c(C(=O)CC(C)(C)C)c2cccc(Cl)c2n1CCC[S+](C)[O-] (stereo not shown)

— patent US7741363B2, “3-Acylindole derivatives, preparation and therapeutic use thereof” (Sanofi-Aventis, priority 2005, dated 2010)
